Reference: US20210070748A1, “INHIBITORS OF BRUTONS TYROSINE KINASE” (Pharmacyclics LLC, priority 2015, published 2021)

What was measured:
Assay type in all cases: biochemical
LCK = LCK (Homo sapiens, UniProt P06239); test: Inhibition of a panel of kinases, in vitro HotSpot kinase assay: LCK; settings: D-compounds panel data; 1 μM ATP; read-out: IC50 LCK
BTK-WT = biological target: T1, BTK-WT (Homo sapiens, UniProt Q06187); test: Btk in vitro inhibitory activity (one of Method A TR-FRET, Method B electrophoretic mobility shift, Method C radiometric filter binding); settings: D-compounds panel data; read-out: IC50 BTK-WT
T1 construct: purified from insect cells as a full-length construct containing an N-terminal 6X-His tag; His6 (N); made in house; host or cells: insect cells (baculovirus Sf21 in Method B)

EGFR = EGFR (Homo sapiens, UniProt P00533); test: Inhibition of a panel of kinases, in vitro HotSpot kinase assay: EGFR; settings: D-compounds panel data; 1 μM ATP
Experimental: (§1) The degree of inhibition of a panel of kinases is determined using the in vitro HotSpot kinase assay (purified enzymes, ^33P-ATP, an appropriate substrate and 1 μM ATP).

ITK = biological target: T2, ITK (Homo sapiens, UniProt Q08881); test: Inhibition of a panel of kinases, in vitro HotSpot kinase assay: ITK; settings: D-compounds panel data; 1 μM ATP
T2 sequence (Q08881 1-620): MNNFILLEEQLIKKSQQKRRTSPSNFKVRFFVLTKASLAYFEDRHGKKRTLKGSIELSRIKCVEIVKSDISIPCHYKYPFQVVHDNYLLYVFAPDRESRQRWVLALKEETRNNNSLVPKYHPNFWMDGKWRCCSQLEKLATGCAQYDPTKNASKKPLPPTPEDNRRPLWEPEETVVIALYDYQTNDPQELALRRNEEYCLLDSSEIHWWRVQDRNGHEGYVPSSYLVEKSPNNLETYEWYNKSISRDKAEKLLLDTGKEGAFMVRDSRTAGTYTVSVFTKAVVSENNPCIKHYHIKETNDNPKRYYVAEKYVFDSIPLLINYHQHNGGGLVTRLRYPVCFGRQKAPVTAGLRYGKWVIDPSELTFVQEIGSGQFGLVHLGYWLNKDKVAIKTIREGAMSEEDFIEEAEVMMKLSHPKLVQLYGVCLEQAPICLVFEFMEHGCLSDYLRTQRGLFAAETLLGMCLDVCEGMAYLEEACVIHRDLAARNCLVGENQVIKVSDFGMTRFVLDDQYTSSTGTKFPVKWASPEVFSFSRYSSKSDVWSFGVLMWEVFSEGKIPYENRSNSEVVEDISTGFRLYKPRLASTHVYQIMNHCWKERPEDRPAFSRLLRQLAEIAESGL
Experimental: as §1

LCK, sequence (P06239 whole entry): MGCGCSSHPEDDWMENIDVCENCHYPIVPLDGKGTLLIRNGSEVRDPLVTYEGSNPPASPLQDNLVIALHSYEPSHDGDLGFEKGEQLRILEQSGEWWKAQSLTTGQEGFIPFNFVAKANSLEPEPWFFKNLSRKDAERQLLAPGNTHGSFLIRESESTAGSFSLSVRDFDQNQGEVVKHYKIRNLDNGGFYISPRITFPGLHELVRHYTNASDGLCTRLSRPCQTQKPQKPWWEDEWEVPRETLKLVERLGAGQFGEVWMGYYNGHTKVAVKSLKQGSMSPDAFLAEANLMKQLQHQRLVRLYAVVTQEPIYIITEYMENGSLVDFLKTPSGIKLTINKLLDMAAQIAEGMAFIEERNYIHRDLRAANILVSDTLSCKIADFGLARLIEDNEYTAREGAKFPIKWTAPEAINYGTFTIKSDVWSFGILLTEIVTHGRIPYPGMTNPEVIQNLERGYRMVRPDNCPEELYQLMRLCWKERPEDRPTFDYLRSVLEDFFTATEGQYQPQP
EGFR, sequence (P00533 25-1210): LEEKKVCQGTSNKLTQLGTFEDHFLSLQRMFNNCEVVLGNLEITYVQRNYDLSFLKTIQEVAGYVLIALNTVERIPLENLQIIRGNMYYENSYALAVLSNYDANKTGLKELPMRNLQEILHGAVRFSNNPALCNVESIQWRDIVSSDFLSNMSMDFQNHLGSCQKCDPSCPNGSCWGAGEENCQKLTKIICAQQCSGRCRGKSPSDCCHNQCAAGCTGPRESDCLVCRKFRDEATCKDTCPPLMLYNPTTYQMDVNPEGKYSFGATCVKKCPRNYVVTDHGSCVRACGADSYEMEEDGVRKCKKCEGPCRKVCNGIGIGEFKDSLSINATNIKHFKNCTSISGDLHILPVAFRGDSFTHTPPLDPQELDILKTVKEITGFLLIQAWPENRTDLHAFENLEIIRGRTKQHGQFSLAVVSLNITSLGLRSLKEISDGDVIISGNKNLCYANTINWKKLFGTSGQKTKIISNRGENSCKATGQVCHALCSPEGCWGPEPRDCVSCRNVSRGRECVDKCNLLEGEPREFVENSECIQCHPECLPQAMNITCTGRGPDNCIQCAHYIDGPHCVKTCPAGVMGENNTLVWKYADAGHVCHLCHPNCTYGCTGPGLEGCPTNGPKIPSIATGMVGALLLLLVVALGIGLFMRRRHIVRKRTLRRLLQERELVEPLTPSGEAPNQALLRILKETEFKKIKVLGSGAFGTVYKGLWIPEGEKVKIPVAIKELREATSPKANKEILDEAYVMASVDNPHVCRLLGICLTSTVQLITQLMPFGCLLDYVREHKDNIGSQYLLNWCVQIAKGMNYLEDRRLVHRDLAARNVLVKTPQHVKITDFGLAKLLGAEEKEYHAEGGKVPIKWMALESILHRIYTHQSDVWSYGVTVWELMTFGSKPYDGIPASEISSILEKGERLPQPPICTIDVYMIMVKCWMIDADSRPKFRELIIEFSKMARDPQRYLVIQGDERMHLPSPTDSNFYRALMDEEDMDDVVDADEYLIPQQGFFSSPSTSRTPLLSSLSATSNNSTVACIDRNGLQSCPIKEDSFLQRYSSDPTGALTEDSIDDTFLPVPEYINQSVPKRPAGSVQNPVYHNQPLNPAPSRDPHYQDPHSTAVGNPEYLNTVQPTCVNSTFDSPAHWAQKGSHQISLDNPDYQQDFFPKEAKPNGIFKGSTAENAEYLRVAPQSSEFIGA
T1 sequence (Q06187 whole entry): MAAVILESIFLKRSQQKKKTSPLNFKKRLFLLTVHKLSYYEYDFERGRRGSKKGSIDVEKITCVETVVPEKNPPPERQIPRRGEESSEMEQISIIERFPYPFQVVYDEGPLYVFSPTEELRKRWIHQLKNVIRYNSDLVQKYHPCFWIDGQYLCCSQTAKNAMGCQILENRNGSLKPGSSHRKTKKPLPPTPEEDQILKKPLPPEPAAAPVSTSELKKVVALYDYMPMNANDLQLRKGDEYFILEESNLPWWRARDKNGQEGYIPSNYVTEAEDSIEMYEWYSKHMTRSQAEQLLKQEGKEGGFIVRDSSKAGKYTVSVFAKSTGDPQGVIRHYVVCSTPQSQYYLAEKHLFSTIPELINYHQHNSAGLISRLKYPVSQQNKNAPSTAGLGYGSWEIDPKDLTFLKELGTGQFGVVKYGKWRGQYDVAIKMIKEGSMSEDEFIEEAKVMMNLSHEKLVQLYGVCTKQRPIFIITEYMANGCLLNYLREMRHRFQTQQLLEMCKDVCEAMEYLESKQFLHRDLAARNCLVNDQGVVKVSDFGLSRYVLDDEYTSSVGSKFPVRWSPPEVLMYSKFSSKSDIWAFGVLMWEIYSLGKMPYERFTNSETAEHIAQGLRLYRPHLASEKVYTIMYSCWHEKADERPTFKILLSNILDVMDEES

Row | SMILES | IC50 (LCK) | IC50 (BTK-WT) | IC50 (EGFR) | IC50 (ITK)
1 | C[C@@H]1[C@H](NC(=O)c2ccc(C3CC3)cc2)CCCN1c1nnc(C(N)=O)c(Nc2cnn(C)c2)n1 [Example D-277, 3-[(2R,3R)-3-(4-cyclopropylbenzamido)-2-methylpiperidin-1-yl]-5-[(1-methyl-1H-pyrazol-4-yl)amino]-1,2,4-triazine-6-carboxamide] | 10 to 100 nM | ≤ 10 nM | 1000 to 10000 nM | 100 to 1000 nM
2 | C[C@@H]1[C@H](NC(=O)c2ccc(C3CC3)cc2)CCCN1c1cnc(C(N)=O)c(Nc2cnn(C3CC3)c2)n1 [Example D-279, 3-[(1-cyclopropyl-1H-pyrazol-4-yl)amino]-5-[(2R,3R)-3-(4-cyclopropylbenzamido)-2-methylpiperidin-1-yl]pyrazine-2-carboxamide] | 100 to 1000 nM | ≤ 10 nM | 1000 to 10000 nM | 100 to 1000 nM
3 | C[C@@H]1[C@H](NC(=O)c2ccc(C3CC3)cc2)CCCN1c1cnc(C(N)=O)c(Nc2cnn(C3CCNCC3)c2)n1 [Example D-280, 5-[(2R,3R)-3-(4-cyclopropylbenzamido)-2-methylpiperidin-1-yl]-3-{[1-(piperidin-4-yl)-1H-pyrazol-4-yl]amino}pyrazine-2-carboxamide] | < 10 nM | ≤ 10 nM | 1000 to 10000 nM | 10 to 100 nM
4 | C[C@@H]1[C@H](NC(=O)c2ccc3nn(C)cc3c2)CCCN1c1cnc(C(N)=O)c(Nc2cnn(C)c2)n1 [Example D-267, N-[(2R,3R)-1-{5-carbamoyl-6-[(1-methyl-1H-pyrazol-4-yl)amino]pyrazin-2-yl}-2-methylpiperidin-3-yl]-2-methyl-2H-indazole-5-carboxamide] | 10 to 100 nM | ≤ 10 nM | 100 to 1000 nM | 100 to 1000 nM
5 | CCN(C)C(=O)N[C@@H]1CCCN(c2cnc(C(N)=O)c(Nc3cnn(C)c3)n2)[C@@H]1C [Example D-304, 5-[(2R,3R)-3-{[ethyl(methyl)carbamoyl]amino}-2-methylpiperidin-1-yl]-3-[(1-methyl-1H-pyrazol-4-yl)amino]pyrazine-2-carboxamide] | 100 to 1000 nM | ≤ 10 nM | 1000 to 10000 nM | 1000 to 10000 nM
6 | C[C@@H]1[C@H](NC(=O)c2ccc(C3CC3)cc2)CCCN1c1cnc(C(N)=O)c(Nc2ccc3c(c2)CCOC3)n1 [Example D-303, 5-[(2R,3R)-3-(4-cyclopropylbenzamido)-2-methylpiperidin-1-yl]-3-[(3,4-dihydro-1H-2-benzopyran-6-yl)amino]pyrazine-2-carboxamide] | > 10000 nM | 10 to 100 nM | > 10000 nM | 1000 to 10000 nM
7 | C[C@@H]1[C@H](NC(=O)c2cc(C(C)(C)C)on2)CCCN1c1cnc(C(N)=O)c(Nc2cnn(C)c2)n1 [Example D-247, 5-[(2R,3R)-3-(5-tert-butyl-1,2-oxazole-3-amido)-2-methylpiperidin-1-yl]-3-[(1-methyl-1H-pyrazol-4-yl)amino]pyrazine-2-carboxamide] | 100 to 1000 nM | ≤ 10 nM | 1000 to 10000 nM | 100 to 1000 nM
8 | C[C@@H]1[C@H](NC(=O)c2ccc(C3CC3)cc2)CCCN1c1cnc(C(N)=O)c(Nc2cn[nH]c2)n1 [Example D-282, 5-[(2R,3R)-3-(4-cyclopropylbenzamido)-2-methylpiperidin-1-yl]-3-[(1H-pyrazol-4-yl)amino]pyrazine-2-carboxamide] | 100 to 1000 nM | ≤ 10 nM | 1000 to 10000 nM | 100 to 1000 nM
9 | C[C@@H]1[C@H](NC(=O)c2ccc(C(C)(C)C)cc2)CCCN1c1nnc(C(N)=O)c(Nc2cnn(C)c2)n1 [Example D-285, 3-[(2R,3R)-3-(4-tert-butylbenzamido)-2-methylpiperidin-1-yl]-5-[(1-methyl-1H-pyrazol-4-yl)amino]-1,2,4-triazine-6-carboxamide] | 10 to 100 nM | ≤ 10 nM | 1000 to 10000 nM | 10 to 100 nM
10 | C[C@@H]1[C@H](NC(=O)c2ccc(C3CC3)cc2)CCCN1c1cnc(C(N)=O)c(Nc2cnn(C(F)F)c2)n1 [Example D-275, 5-[(2R,3R)-3-(4-cyclopropylbenzamido)-2-methylpiperidin-1-yl]-3-{[1-(difluoromethyl)-1H-pyrazol-4-yl]amino}pyrazine-2-carboxamide] | 1000 to 10000 nM | ≤ 10 nM | > 10000 nM | 1000 to 10000 nM

Now from value to compound:

Row | IC50 (LCK) | IC50 (BTK-WT) | IC50 (EGFR) | IC50 (ITK) | SMILES
11 | 100 to 1000 nM | ≤ 10 nM | 100 to 1000 nM | 100 to 1000 nM | CCn1cc(Nc2nc(N3CCC[C@@H](NC(=O)c4ccc(C5CC5)cc4)[C@H]3C)cnc2C(N)=O)cn1 [Example D-273, 5-[(2R,3R)-3-(4-cyclopropylbenzamido)-2-methylpiperidin-1-yl]-3-[(1-ethyl-1H-pyrazol-4-yl)amino]pyrazine-2-carboxamide]
12 | 100 to 1000 nM | ≤ 10 nM | 1000 to 10000 nM | 100 to 1000 nM | COCCn1cc(Nc2nc(N3CCC[C@@H](NC(=O)c4ccc(C5CC5)cc4)[C@H]3C)cnc2C(N)=O)cn1 [Example D-270, 5-[(2R,3R)-3-(4-cyclopropylbenzamido)-2-methylpiperidin-1-yl]-3-{[1-(2-methoxyethyl)-1H-pyrazol-4-yl]amino}pyrazine-2-carboxamide]
13 | 10 to 100 nM | ≤ 10 nM | 100 to 1000 nM | 100 to 1000 nM | C[C@@H]1[C@H](NC(=O)c2ccc(C(C)(O)CO)cc2)CCCN1c1cnc(C(N)=O)c(Nc2cnn(C)c2)n1 (single isomer, unassigned) [Example D-256]
14 | 10 to 100 nM | ≤ 10 nM | 1000 to 10000 nM | 100 to 1000 nM | C[C@@H]1[C@H](NC(=O)c2ccc3ncsc3c2)CCCN1c1cnc(C(N)=O)c(Nc2cnn(C)c2)n1 [Example D-243, N-[(2R,3R)-1-{5-carbamoyl-6-[(1-methyl-1H-pyrazol-4-yl)amino]pyrazin-2-yl}-2-methylpiperidin-3-yl]-1,3-benzothiazole-6-carboxamide]
15 | 10 to 100 nM | ≤ 10 nM | 100 to 1000 nM | 100 to 1000 nM | Cc1nc2cc(C(=O)N[C@@H]3CCCN(c4cnc(C(N)=O)c(Nc5cnn(C)c5)n4)[C@@H]3C)ccc2[nH]1 [Example D-261, N-[(2R,3R)-1-{5-carbamoyl-6-[(1-methyl-1H-pyrazol-4-yl)amino]pyrazin-2-yl}-2-methylpiperidin-3-yl]-2-methyl-1H-1,3-benzodiazole-5-carboxamide]
16 | 100 to 1000 nM | ≤ 10 nM | 1000 to 10000 nM | 100 to 1000 nM | C[C@@H]1[C@H](NC(=O)c2ccc(C3COC3)cc2)CCCN1c1cnc(C(N)=O)c(Nc2cnn(C)c2)n1 [Example D-23, 3-[(1-methyl-1H-pyrazol-4-yl)amino]-5-[(2R,3R)-2-methyl-3-[4-(oxetan-3-yl)benzamido]piperidin-1-yl]pyrazine-2-carboxamide]
17 | 10 to 100 nM | ≤ 10 nM | 1000 to 10000 nM | 100 to 1000 nM | C[C@@H]1[C@H](NC(=O)c2ccc(C3(CO)CC3)cc2)CCCN1c1cnc(C(N)=O)c(Nc2cnn(C)c2)n1 [Example D-260, 5-[(2R,3R)-3-{4-[1-(hydroxymethyl)cyclopropyl]benzamido}-2-methylpiperidin-1-yl]-3-[(1-methyl-1H-pyrazol-4-yl)amino]pyrazine-2-carboxamide]
